Results on 1 molecule are retold here after PMC6050274, “Buparlisib is a brain penetrable pan-PI3K inhibitor” (Scientific Reports, 2018).

The structures appear in SMILES notation.

One data set concerns the target T1, human P-gp (ABCB1/MDR1) (Homo sapiens, UniProt P08183).
T1 construct: expressed in transfected cells; host or cells: LLC-PK1 (LLC-MDR1)
In words: Concentration equilibrium transport assay (CETA), LLC-MDR1. In kind it is in vitro ADME. The conditions noted are these: 100 nM. The text has this: (§1) Figure 1 Analysis of buparlisib substrate affinity for ABC transporters using in vitro transport assays. (A) The chemical structure of buparlisib. (B) A conventional transport assay (CTA) using LLC-PK1 cells in presence of zosuquidar to block endogenous (porcine) P-gp activity. […] (C) Concentration equilibrium transport assays (CETAs) using MDCK or LLC cells that overexpress murine BCRP, (Bcrp1), human BCRP, murine P-gp (Mdr1a) or human P-gp (MDR1). […] The P-gp inhibitor zosuquidar was used in all MDCK cell lines to inhibit endogenous P-gp activity and in LLC cell lines to validate possible P-gp-mediated translocations. […]
(§2) Conventional bidirectional transport assays (CTAs) and concentration equilibrium transport assays (CETAs) were performed as described previously. […] Transwell leakiness was determined as Carboxyl-[^14C]-inulin translocation exceeding 1.5% per hour and these wells were excluded from the analysis. […]
(§3) As described in detail before, CETA results were analysed with the General linear model repeated measures procedure of SPSS (v22; SPSS Inc, Chicago, IL)[25]. […] The standard error of the oral bioavailability was calculated using the formula below: SEF=F(SEAUCp.o./AUCp.o.)^2+(SEAUCi.v./AUCi.v.)^2 Buparlisib concentrations in WT and transporter knockout mice in vivo were compared using one-way analysis of variance followed by post hoc Bonferroni tests. […]

A further data set has as its system LLC-PK1 cells. In words: Conventional transport assay (CTA), diffusion over a cellular monolayer. The data set is classed as in vitro ADME, porcine. The conditions noted are these: zosuquidar present, both directions, 100 nM. From the text:
We first sought to investigate whether buparlisib (Fig. 1A) is transported by P-gp or BCRP in vitro using concentration equilibrium transport assays (CETAs). CETAs are sensitive assays to determine translocation over a cellular monolayer and are frequently used to determine substrate affinity for ABC transporters by comparing cell lines that overexpress ABC transporters with their parental counterparts[24]–[26]. Since P-gp and BCRP are apically located transporters, a prerequisite for detecting substrate affinity for these transporters in a CETA is the capacity of a molecule to penetrate cell membranes. We therefore first confirmed that buparlisib could efficiently diffuse over a cellular monolayer using a conventional transwell set-up. […]
Conventional bidirectional transport assays (CTAs) and concentration equilibrium transport assays (CETAs) were performed as described previously. […] Transwell leakiness was determined as Carboxyl-[^14C]-inulin translocation exceeding 1.5% per hour and these wells were excluded from the analysis.
To prepare buparlisib transport assay samples for LC-MS/MS analysis, 10 μL medium samples were mixed with 30 μL of acetonitrile:formic acid (100:1 v/v). After centrifugation, the supernatant was 5-fold diluted in water and the buparlisib concentration was measured using an LC-MS/MS system as described below.

Data set [1] deals with T2, murine P-gp (Abcb1a/Mdr1a) (Mus musculus, UniProt P21447).
T2 construct: expressed in transfected cells; host or cells: LLC-PK1 (LLC-Mdr1a)
T2 sequence (P21447 whole entry): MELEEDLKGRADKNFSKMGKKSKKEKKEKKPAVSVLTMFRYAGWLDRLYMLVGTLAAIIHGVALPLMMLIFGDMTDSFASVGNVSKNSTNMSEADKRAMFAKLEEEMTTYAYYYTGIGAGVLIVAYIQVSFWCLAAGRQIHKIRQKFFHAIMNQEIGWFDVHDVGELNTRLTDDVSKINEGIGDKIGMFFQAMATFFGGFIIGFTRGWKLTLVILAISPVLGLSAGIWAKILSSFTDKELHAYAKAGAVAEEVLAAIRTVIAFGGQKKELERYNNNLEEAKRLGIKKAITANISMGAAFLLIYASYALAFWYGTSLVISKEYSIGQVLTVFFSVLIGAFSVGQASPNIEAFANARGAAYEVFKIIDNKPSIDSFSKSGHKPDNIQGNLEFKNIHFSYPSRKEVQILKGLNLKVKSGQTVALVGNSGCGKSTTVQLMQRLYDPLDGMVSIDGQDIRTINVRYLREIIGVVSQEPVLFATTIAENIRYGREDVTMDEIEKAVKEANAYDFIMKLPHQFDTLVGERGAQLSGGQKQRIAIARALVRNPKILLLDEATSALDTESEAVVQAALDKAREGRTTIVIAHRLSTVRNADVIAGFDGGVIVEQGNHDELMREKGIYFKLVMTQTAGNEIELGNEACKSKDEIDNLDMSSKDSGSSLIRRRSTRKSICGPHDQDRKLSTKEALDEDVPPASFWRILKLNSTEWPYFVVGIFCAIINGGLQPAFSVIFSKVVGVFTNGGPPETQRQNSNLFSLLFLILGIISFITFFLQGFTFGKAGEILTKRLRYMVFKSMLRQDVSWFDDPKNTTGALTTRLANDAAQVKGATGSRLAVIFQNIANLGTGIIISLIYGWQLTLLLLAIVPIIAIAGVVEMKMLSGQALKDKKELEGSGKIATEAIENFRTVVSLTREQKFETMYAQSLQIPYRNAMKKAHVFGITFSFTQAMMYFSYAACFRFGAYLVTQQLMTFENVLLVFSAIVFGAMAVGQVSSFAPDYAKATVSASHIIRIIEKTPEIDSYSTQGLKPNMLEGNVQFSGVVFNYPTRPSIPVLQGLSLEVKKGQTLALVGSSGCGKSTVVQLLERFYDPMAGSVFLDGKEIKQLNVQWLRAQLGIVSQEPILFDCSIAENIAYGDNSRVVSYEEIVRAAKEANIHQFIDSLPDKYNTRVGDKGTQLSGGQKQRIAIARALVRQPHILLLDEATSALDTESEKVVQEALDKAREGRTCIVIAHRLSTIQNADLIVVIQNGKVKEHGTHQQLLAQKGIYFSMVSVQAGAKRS
Kind of data set: Concentration equilibrium transport assay (CETA), LLC-Mdr1a. The conditions noted are these: 100 nM. In kind it is in vitro ADME.
Excerpt: as §1, §2, §3

Another data set has as its target T3, human BCRP (ABCG2) (Homo sapiens, UniProt Q9UNQ0).
T3 construct: expressed in transfected cells; host or cells: MDCK (MDCK-BCRP)
T3 sequence (Q9UNQ0 1-655): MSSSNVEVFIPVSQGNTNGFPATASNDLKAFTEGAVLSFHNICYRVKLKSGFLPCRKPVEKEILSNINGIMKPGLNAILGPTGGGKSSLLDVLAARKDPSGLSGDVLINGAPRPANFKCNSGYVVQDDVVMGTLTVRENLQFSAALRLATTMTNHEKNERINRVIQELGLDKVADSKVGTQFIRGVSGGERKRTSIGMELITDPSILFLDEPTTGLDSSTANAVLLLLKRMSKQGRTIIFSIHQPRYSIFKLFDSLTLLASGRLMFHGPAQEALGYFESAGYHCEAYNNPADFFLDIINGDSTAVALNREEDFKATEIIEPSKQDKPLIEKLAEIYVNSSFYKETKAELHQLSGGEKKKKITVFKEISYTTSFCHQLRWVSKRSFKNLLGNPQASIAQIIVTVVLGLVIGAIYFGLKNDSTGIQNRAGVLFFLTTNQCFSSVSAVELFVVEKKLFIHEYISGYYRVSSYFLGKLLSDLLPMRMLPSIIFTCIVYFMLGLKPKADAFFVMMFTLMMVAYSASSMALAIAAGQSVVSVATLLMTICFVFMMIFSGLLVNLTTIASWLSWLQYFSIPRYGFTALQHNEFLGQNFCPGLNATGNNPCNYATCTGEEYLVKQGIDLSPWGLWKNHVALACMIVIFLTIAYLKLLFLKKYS
Kind of data set: Concentration equilibrium transport assay (CETA), MDCK-BCRP. The data set is classed as in vitro ADME. The conditions noted are these: 100 nM.
Excerpt: as §1, §2, §3

The conditions of data set [2]: humans; cited from earlier work.

T1 sequence (P08183 whole entry): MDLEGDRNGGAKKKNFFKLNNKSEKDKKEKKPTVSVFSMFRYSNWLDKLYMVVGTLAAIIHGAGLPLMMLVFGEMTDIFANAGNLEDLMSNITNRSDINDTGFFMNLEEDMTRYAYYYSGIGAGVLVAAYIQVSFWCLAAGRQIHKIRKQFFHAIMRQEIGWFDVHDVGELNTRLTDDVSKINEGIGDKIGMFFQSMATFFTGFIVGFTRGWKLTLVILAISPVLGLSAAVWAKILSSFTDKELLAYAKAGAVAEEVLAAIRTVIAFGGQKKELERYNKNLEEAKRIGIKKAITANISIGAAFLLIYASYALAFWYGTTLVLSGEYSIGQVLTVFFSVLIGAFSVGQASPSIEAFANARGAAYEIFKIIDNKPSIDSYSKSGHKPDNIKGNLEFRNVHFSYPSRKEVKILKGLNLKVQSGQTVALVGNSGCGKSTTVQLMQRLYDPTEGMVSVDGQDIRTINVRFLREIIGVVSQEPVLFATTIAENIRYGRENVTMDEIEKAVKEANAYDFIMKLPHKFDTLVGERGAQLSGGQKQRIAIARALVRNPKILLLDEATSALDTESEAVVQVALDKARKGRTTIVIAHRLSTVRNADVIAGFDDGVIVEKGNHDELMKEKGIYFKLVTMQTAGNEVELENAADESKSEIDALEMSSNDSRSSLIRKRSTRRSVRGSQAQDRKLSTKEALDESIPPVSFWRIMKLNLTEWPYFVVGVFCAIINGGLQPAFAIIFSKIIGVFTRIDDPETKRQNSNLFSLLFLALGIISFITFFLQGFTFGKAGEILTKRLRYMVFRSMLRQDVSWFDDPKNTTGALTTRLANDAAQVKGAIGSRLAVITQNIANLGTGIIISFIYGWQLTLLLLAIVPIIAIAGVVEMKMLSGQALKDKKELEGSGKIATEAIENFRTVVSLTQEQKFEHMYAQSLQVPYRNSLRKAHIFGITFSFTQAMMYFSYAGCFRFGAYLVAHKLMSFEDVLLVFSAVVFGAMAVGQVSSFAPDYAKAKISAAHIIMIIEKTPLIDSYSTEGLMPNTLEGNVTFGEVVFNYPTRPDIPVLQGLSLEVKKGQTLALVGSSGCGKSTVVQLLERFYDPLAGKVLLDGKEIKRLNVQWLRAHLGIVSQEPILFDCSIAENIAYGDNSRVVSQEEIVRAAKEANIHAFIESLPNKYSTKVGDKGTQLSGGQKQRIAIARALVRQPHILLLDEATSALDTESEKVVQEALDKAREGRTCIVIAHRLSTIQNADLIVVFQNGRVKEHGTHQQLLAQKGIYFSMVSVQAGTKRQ

For the molecule `Nc1cc(C(F)(F)F)c(-c2cc(N3CCOCC3)nc(N3CCOCC3)n2)cn1` [buparlisib], the “substrate of human P-gp” value on human P-gp (ABCB1/MDR1) is on record as “not a substrate”. Also, in the data set on LLC-PK1 cells, the “time to plateau to almost complete equilibrium between apical and basal compartments” value is at most 4 h. Further, in data set [1], the “substrate of murine P-gp” value is given as “not a substrate”. At human BCRP (ABCG2), the “substrate of human BCRP” value is listed as “not a substrate”. For the same molecule, the maximum tolerated dose in data set [2] was 100 mg per day.
